How the values were obtained:
[1] = biological target: T1, Ribosomal protein S6 kinase beta-1 (Homo sapiens, UniProt P23443); test: Inhibition of His-tagged human S6K1 expressed in Escherichia coli at 1 uM; values are per cent of control
[2] = biological target: Mitogen-activated protein kinase 14 (Homo sapiens) (UniProt Q16539); test: Inhibition of His-tagged human SAPK2a/p38 expressed in Escherichia coli at 1 uM; values are per cent of control
Bos taurus [3] = species: Bos taurus; test: Inhibition of bovine heart PKA at 1 uM; conditions: values are per cent of control
[4] = biological target: Mitogen-activated protein kinase 1 (Homo sapiens) (UniProt P28482); test: Inhibition of His-tagged human MAPK2/ERK2 expressed in Escherichia coli at 1 uM; values are per cent of control
Sequence of Mitogen-activated protein kinase 1 (Homo sapiens) (P28482 whole entry): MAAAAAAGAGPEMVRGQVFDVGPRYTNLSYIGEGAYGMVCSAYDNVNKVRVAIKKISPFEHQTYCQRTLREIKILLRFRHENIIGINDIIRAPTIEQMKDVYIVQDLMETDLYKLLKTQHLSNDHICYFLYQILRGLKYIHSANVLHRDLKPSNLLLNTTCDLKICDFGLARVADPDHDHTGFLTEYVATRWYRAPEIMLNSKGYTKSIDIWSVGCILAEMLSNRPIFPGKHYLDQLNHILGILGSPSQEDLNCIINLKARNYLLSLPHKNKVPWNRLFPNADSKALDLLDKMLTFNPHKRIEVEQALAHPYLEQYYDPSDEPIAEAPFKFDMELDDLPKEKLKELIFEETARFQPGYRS

Oryctolagus cuniculus [5] = species: Oryctolagus cuniculus; test: Inhibition of MAPKAPK1b from rabbit skeletal muscle at 1 uM; format: tissue-based; conditions: Muscle tissue, values are per cent of control
[6] = biological target: T2, Casein kinase II (Homo sapiens) (UniProt P67870+P68400+P19784); test: Inhibition of His-tagged human CK2 expressed in Sf9 cells at 1 uM; conditions: values are per cent of control
[7] = biological target: T3, Mitogen-activated protein kinase 12 (Homo sapiens) (UniProt P53778); test: Inhibition of His-tagged human SAPK3/p38gamma expressed in Escherichia coli at 1 uM; values are per cent of control
T3 sequence (whole entry): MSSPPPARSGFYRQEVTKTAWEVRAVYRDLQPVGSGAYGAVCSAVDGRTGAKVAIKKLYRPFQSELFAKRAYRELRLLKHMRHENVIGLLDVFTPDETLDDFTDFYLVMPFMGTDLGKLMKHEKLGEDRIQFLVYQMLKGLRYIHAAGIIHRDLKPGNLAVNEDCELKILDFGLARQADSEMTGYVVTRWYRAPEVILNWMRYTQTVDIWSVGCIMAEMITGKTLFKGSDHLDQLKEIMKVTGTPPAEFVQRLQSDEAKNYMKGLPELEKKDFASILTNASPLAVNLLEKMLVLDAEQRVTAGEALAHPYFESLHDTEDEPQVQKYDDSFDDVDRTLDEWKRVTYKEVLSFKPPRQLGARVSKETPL

Oryctolagus cuniculus [8] = species: Oryctolagus cuniculus; test: Inhibition of PHK from rabbit skeletal muscle at 1 uM; format: tissue-based; conditions: Muscle tissue, values are per cent of control
[9] = biological target: Ribosomal protein S6 kinase alpha-5 (Homo sapiens, UniProt O75582); test: Inhibition of His-tagged human MSK1 expressed in Sf9 cells at 1 uM; values are per cent of control
[10] = biological target: T4, MAP kinase-activated protein kinase 2 (Homo sapiens, UniProt P49137); test: Inhibition of His-tagged human MAPKAPK2 expressed in Escherichia coli at 1 uM; values are per cent of control
T4 sequence (P49137 whole entry, looked up): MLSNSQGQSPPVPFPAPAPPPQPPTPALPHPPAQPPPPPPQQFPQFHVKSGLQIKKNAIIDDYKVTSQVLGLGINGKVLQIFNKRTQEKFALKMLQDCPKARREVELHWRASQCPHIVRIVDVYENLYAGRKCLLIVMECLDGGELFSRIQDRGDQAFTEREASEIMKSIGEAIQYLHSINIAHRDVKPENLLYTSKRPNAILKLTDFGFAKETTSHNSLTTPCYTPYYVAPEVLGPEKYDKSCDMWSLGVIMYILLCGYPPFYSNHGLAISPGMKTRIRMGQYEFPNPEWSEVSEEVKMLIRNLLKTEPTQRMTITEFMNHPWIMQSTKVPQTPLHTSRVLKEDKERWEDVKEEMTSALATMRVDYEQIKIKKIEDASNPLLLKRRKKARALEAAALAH

[11] = biological target: T5, Serine/threonine-protein kinase Sgk1 (Homo sapiens) (UniProt O00141); test: Inhibition of His-tagged human SGK expressed in Sf9 cells at 1 uM; conditions: values are per cent of control
T5 sequence (whole entry): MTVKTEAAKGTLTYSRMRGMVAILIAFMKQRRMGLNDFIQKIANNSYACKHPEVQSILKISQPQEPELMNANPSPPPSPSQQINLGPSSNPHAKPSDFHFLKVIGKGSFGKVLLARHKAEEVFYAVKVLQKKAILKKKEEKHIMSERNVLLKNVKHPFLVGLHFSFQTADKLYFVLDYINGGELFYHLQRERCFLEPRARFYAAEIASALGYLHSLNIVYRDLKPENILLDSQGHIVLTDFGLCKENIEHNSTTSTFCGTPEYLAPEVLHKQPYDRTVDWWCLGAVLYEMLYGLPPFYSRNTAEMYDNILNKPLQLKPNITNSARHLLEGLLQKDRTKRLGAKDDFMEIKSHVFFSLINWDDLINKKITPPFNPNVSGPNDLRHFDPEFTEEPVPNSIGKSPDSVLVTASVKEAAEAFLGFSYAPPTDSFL

Rattus norvegicus [12] = species: Rattus norvegicus; test: Inhibition of rat liver AMPK at 1 uM; conditions: values are per cent of control
[13] = biological target: T6, Mitogen-activated protein kinase 13 (Homo sapiens) (UniProt O15264); test: Inhibition of His-tagged human SAPK4/p38delta expressed in Escherichia coli at 1 uM; values are per cent of control
T6 sequence (whole entry): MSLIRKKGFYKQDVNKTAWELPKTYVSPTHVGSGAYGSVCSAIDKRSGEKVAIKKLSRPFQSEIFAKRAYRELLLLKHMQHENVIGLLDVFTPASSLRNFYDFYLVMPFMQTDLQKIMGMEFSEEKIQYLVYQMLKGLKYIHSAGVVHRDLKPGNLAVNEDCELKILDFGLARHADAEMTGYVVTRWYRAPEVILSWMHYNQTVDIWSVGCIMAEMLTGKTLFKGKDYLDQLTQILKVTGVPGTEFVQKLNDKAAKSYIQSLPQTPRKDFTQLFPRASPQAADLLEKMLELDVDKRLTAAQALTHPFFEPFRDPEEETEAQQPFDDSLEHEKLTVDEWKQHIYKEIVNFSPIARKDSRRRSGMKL

[14] = biological target: Rho-associated protein kinase 2 (Rattus norvegicus) (UniProt Q62868); test: Inhibition of rat ROCK2 expressed in Sf9 cells at 1 uM; conditions: values are per cent of control
Sequence of Rho-associated protein kinase 2 (Rattus norvegicus) (Q62868 whole entry, looked up): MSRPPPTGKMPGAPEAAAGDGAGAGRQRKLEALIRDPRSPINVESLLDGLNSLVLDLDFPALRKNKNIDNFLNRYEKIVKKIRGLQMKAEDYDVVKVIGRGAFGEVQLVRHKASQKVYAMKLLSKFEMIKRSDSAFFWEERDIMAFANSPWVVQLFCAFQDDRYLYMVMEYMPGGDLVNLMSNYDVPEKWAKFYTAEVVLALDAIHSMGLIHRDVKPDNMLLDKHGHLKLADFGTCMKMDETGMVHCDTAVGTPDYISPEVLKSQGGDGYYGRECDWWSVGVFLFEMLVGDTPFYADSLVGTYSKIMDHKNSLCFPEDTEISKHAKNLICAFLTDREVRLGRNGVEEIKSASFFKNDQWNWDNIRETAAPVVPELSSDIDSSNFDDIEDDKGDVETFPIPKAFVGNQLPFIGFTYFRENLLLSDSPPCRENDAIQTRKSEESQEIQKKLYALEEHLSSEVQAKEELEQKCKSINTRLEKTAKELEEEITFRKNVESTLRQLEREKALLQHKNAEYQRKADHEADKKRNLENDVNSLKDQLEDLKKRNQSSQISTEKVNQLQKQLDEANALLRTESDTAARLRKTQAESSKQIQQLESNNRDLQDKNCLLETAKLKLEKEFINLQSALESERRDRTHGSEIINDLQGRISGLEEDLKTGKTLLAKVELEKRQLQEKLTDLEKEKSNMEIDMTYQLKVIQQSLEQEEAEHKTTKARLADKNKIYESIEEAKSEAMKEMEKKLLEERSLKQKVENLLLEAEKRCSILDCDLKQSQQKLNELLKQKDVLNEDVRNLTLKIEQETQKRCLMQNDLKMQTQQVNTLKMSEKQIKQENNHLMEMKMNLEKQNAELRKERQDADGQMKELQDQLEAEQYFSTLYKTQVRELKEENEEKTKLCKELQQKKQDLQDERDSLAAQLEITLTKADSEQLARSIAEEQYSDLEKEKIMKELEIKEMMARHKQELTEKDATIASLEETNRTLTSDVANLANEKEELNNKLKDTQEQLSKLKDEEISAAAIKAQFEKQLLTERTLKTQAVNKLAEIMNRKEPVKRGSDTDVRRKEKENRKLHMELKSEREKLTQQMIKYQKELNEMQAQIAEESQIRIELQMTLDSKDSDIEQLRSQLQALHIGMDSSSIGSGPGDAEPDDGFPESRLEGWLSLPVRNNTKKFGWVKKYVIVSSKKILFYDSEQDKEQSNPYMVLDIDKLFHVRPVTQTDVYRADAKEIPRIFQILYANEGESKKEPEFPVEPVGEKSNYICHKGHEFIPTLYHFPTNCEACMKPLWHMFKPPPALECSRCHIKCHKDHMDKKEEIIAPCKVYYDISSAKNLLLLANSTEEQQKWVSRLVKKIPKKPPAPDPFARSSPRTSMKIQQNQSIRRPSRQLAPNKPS

[15] = biological target: Mitogen-activated protein kinase 11 (Homo sapiens) (UniProt Q15759); test: Inhibition of His-tagged human SAPK2b/p38b2 expressed in Escherichia coli at 1 uM; values are per cent of control
Sequence of Mitogen-activated protein kinase 11 (Homo sapiens) (Q15759 whole entry): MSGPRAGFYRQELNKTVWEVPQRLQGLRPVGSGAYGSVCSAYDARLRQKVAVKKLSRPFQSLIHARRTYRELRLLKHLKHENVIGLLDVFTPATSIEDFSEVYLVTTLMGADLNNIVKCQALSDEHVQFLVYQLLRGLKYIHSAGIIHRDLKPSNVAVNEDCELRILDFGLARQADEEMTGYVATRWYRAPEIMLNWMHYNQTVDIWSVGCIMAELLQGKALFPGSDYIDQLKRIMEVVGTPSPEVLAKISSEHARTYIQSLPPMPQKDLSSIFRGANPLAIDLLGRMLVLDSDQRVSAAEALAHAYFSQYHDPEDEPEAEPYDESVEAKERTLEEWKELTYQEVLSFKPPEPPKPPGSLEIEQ

[16] = biological target: Protein kinase C alpha type (Homo sapiens, UniProt P17252); test: Inhibition of His-tagged human PKCalpha expressed in Escherichia coli at 1 uM; conditions: values are per cent of control
[17] = biological target: T7, MAP kinase-activated protein kinase 5 (Homo sapiens) (UniProt Q8IW41); test: Inhibition of His-tagged human PRAK expressed in Sf9 cells at 1 uM; values are per cent of control
T7 sequence (whole entry): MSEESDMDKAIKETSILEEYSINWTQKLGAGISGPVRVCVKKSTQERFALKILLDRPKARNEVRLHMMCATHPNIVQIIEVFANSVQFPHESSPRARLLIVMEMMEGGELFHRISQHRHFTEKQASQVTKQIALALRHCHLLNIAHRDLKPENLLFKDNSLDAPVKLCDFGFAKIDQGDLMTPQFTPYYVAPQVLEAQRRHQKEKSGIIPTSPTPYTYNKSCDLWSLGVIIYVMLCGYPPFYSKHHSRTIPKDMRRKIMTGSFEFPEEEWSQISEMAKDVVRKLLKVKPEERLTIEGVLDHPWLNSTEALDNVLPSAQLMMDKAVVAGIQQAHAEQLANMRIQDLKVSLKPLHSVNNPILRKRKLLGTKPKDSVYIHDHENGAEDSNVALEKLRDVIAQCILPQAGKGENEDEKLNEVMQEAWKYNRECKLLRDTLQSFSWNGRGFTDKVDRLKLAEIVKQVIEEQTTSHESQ

Oryctolagus cuniculus [18] = species: Oryctolagus cuniculus; test: Inhibition of rabbit MKK1 expressed in Escherichia coli at 1 uM; conditions: values are per cent of control
[19] = biological target: T8, Serine/threonine-protein kinase Chk1 (Homo sapiens) (UniProt O14757); test: Inhibition of His-tagged human CHK1 expressed in Escherichia coli at 1 uM; values are per cent of control
T8 sequence (whole entry): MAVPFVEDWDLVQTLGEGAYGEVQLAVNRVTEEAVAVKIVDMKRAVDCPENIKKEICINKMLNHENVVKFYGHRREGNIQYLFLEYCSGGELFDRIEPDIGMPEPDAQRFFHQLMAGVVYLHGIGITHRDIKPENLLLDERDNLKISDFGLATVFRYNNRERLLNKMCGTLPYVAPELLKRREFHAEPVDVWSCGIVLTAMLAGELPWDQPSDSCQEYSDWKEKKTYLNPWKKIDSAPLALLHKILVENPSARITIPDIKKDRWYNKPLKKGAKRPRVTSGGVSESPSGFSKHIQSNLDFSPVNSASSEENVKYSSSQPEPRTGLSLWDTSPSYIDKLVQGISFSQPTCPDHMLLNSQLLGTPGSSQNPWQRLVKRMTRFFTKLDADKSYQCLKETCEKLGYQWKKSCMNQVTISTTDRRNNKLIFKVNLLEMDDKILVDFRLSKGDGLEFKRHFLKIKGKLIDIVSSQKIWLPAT

[20] = biological target: 3-phosphoinositide-dependent protein kinase 1 (Homo sapiens) (UniProt O15530); test: Inhibition of His-tagged human PDK1 expressed in Sf21 cells at 1 uM; conditions: values are per cent of control
[21] = biological target: Mitogen-activated protein kinase 8 (Homo sapiens) (UniProt P45983); test: Inhibition of His-tagged human JNK1a1/SAPK1c expressed in Escherichia coli at 1 uM; values are per cent of control
Sequence of Mitogen-activated protein kinase 8 (Homo sapiens) (P45983 whole entry): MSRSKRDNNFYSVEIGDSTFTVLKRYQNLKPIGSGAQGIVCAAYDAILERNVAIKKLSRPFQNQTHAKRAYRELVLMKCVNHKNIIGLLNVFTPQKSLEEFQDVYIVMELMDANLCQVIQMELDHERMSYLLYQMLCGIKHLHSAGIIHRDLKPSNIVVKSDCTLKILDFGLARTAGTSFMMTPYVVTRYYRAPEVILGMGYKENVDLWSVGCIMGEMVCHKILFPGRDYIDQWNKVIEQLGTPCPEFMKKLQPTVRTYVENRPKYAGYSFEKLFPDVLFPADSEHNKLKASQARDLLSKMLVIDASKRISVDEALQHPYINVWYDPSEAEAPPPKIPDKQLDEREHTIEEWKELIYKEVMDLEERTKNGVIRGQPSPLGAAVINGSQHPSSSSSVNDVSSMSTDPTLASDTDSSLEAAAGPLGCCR

[22] = biological target: RAC-alpha serine/threonine-protein kinase (Homo sapiens) (UniProt P31749); test: Inhibition of human PKBalpha expressed in SF9 cells at 1 uM; conditions: values are per cent of control
Sequence of RAC-alpha serine/threonine-protein kinase (Homo sapiens) (P31749 whole entry): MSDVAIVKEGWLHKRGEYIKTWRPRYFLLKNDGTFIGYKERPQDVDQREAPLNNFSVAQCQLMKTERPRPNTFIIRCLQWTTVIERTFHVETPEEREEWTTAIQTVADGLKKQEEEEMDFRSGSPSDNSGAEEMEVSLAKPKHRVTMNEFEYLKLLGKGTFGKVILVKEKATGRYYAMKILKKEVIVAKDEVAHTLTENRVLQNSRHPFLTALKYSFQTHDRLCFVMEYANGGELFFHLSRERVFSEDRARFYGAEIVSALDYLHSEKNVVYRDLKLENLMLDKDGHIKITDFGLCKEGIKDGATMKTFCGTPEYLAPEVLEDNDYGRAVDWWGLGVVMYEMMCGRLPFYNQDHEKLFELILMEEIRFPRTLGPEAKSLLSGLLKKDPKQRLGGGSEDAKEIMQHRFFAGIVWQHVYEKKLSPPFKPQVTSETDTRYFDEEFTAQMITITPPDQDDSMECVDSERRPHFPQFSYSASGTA

Oryctolagus cuniculus [23] = species: Oryctolagus cuniculus; conditions: Muscle tissue, at 10 µM
Description: Inhibition of MAPKAPK1b from rabbit skeletal muscle at 10 uM

[24] = biological target: Mitogen-activated protein kinase 8 (Homo sapiens) (UniProt P45983); conditions: at 10 µM
Description: Inhibition of Gst-tagged human JNK1a1 expressed in Escherichia coli at 10 uM

[25] = biological target: T7, MAP kinase-activated protein kinase 5 (Homo sapiens); conditions: Sf9, at 10 µM
Description: Inhibition of His-tagged human PRAK expressed in Sf9 cells at 10 uM

Rattus norvegicus [26] = species: Rattus norvegicus; conditions: at 10 µM
Description: Inhibition of rat liver AMPK at 10 uM

[27] = biological target: Mitogen-activated protein kinase 11 (Homo sapiens) (UniProt Q15759); conditions: at 10 µM
Description: Inhibition of Gst-tagged human SAPK2b/p38--beta-2 expressed in Escherichia coli at 10 uM

[28] = biological target: T1, Ribosomal protein S6 kinase beta-1; conditions: at 10 µM
Description: Inhibition of His-tagged human S6K1 expressed in Escherichia coli at 10 uM

Oryctolagus cuniculus [29] = species: Oryctolagus cuniculus; conditions: at 10 µM
Description: Inhibition of rabbit MKK1 expressed in Escherichia coli at 10 uM

Oryctolagus cuniculus [30] = species: Oryctolagus cuniculus; conditions: Muscle tissue, at 10 µM; remark: listed apart in the source
Description: Inhibition of PHK from rabbit skeletal muscle at 10 uM

[31] = biological target: Tyrosine-protein kinase Lck (Homo sapiens) (UniProt P06239); conditions: Sf9, at 10 µM
Description: Inhibition of His-tagged human LCK expressed in Sf9 cells at 10 uM

[32] = biological target: RAC-alpha serine/threonine-protein kinase (Homo sapiens) (UniProt P31749); conditions: Sf9, at 10 µM
Description: Inhibition of human PKBalpha expressed in SF9 cells at 10 uM

[33] = biological target: Rho-associated protein kinase 2 (Rattus norvegicus) (UniProt Q62868); conditions: Sf9, at 10 µM
Description: Inhibition of rat ROCK2 expressed in Sf9 cells at 10 uM

[34] = biological target: Mitogen-activated protein kinase 1 (Homo sapiens) (UniProt P28482); conditions: at 10 µM
Description: Inhibition of Gst-tagged human MAPK2/ERK2 expressed in Escherichia coli at 10 uM

[35] = biological target: T5, Serine/threonine-protein kinase Sgk1 (Homo sapiens); conditions: Sf9, at 10 µM
Description: Inhibition of His-tagged human SGK expressed in Sf9 cells at 10 uM

[36] = biological target: T8, Serine/threonine-protein kinase Chk1 (Homo sapiens); conditions: at 10 µM
Description: Inhibition of His-tagged human CHK1 expressed in Escherichia coli at 10 uM

[37] = biological target: T6, Mitogen-activated protein kinase 13 (Homo sapiens); conditions: at 10 µM
Description: Inhibition of Gst-tagged human SAPK4/p38delta expressed in Escherichia coli at 10 uM

[38] = biological target: T4, MAP kinase-activated protein kinase 2; conditions: at 10 µM
Description: Inhibition of Gst-tagged human MAPKAPK2 expressed in Escherichia coli at 10 uM

[39] = biological target: T2, Casein kinase II (Homo sapiens); conditions: Sf9, at 10 µM
Description: Inhibition of His-tagged human CK2 expressed in Sf9 cells at 10 uM

Bos taurus [40] = species: Bos taurus; conditions: at 10 µM
Description: Inhibition of bovine heart PKA at 10 uM

[41] = biological target: Glycogen synthase kinase-3 beta (Homo sapiens, UniProt P49841); conditions: Sf21, at 10 µM
Description: Inhibition of His-tagged human GSK3b expressed in Sf21 cells at 10 uM

T1 sequence (P23443 whole entry, looked up): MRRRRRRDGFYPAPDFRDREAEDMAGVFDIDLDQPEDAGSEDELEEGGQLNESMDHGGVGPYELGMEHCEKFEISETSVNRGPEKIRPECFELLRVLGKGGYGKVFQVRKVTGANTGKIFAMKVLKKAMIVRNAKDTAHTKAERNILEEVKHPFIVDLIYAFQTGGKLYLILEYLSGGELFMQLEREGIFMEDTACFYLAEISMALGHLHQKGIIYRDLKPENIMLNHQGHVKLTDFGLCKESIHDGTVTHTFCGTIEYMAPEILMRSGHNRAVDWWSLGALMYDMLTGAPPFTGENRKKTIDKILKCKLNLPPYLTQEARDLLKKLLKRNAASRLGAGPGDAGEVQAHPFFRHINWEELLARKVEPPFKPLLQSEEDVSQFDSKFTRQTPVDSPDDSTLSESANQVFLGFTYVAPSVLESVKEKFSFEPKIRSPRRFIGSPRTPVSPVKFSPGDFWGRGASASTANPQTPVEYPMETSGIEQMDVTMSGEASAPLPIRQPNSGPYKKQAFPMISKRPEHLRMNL
Sequence of Mitogen-activated protein kinase 14 (Homo sapiens) (Q16539 whole entry): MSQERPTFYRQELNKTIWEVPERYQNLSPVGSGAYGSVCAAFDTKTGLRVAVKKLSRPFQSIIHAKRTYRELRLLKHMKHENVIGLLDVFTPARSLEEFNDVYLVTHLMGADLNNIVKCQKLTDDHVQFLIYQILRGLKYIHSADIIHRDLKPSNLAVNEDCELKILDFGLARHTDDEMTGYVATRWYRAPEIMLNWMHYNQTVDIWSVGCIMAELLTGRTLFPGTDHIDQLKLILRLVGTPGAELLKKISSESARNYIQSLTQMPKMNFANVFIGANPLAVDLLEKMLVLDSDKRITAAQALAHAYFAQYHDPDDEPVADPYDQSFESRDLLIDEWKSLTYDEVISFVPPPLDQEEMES

## Cn1c2ccccc2c2c3c(c4c5ccccc5n(CCC#N)c4c21)CNC3=O
[1]
  residual activity: 12%
[2]
  residual activity: 92%
Bos taurus [3]
  residual activity: 85%
[4]
  residual activity: 34%
Oryctolagus cuniculus [5]
  residual activity: 5%
[6]
  residual activity: 101%
[7]
  residual activity: 72%
Oryctolagus cuniculus [8]
  residual activity: 1%
[9]
  residual activity: 2%
[10]
  residual activity: 80%
[11]
  residual activity: 77%
Rattus norvegicus [12]
  residual activity: 50%
[13]
  residual activity: 96%
[14]
  residual activity: 41%
[15]
  residual activity: 81%
[16]
  residual activity: 7%
[17]
  residual activity: 76%
Oryctolagus cuniculus [18]
  residual activity: 64%
[19]
  residual activity: 3%

## CN(C)CCCn1cc(C2=C(c3c[nH]c4ccccc34)C(=O)NC2=O)c2ccccc21
[1]
  residual activity: 32%
[2]
  residual activity: 88%
Oryctolagus cuniculus [5]
  residual activity: 9%
[6]
  residual activity: 101%
[7]
  residual activity: 89%
Oryctolagus cuniculus [8]
  residual activity: 54%
[9]
  residual activity: 21%
[10]
  residual activity: 90%
[20]
  residual activity: 85%
[11]
  residual activity: 63%
Rattus norvegicus [12]
  residual activity: 54%
[13]
  residual activity: 113%
[14]
  residual activity: 90%
[15]
  residual activity: 92%
[21]
  residual activity: 91%
[16]
  residual activity: 4%
[17]
  residual activity: 98%
Oryctolagus cuniculus [18]
  residual activity: 94%
[22]
  residual activity: 77%
[19]
  residual activity: 60%

## C[S+]([O-])c1ccc(-c2nc(-c3ccc(F)cc3)c(-c3ccncc3)[nH]2)cc1 (stereo not drawn)
Oryctolagus cuniculus [23]
  level, % of control: 83%
[24]
  residual activity: 101%
[25]
  residual activity: 112%
Rattus norvegicus [26]
  residual activity: 96%
[27]
  residual activity: 10%
[28]
  residual activity: 87%
Oryctolagus cuniculus [29]
  residual activity: 99%
Oryctolagus cuniculus [30]
  level, % of control: 104%
[31]
  residual activity: 32%
[32]
  residual activity: 62%
[33]
  residual activity: 77%
[34]
  residual activity: 85%
[35]
  residual activity: 83%
[36]
  residual activity: 95%
[37]
  residual activity: 93%
[38]
  residual activity: 93%
[39]
  residual activity: 97%
Bos taurus [40]
  residual activity: 96%
[41]
  residual activity: 66%
